The test system of this assay is Aspergillus nidulans. Description: Conidiation-inducing bioassay modified for Aspergillus (conidiophores per mycelial pellet). The note with it: control at least 28 hours. It counts as cell-based. Here is the method:
Assays were carried out in shaken flask cultures using 25 mL. […] Determination of conidiation inducing activity was followed by microscopic observation of mycelium samples taken at different times. For these purposes, conidiation time was defined as the time at which 50% of the hyphal tips attained the final stage of conidiation (conidia-bearing tips), according to previously established criteria (Ugalde and Pitt, 1983), namely, the direct microscopic observation of three separate groups of 500 hyphal tips, and the determination of the proportion of hyphal tips in each group which bear conidia.
The bioassay procedure described above was used to assess qualitatively in other filamentous fungi, in particular, those of the genus Aspergillus, the conidiation-inducing activity of the compounds that were extracted, isolated and purified from Penicillium cyclopium in accordance with Example 1. […] Thus, the criteria employed to determine the time of conidiation in these cases was the appearance of at least two conidiophores (the specific phialide bearing structure for this genus) on average per mycellial pellet, measured from a minimum of 10 pellets.

On to `CC1C(O)CC(O)C2(C)CCC3C4C(C)(C)CCC4(C)CC132` (stereo not drawn) [conidiogenol, (1R*, 3R*, 7R*, 8S*, 11R*, 12R*, 14S*, 15R*)-3,6,6,11,15-pentamethyl-tetracyclo[9.4.0.0^1,8.0^3,7]-pentadecan-12,14-diol], for which, for the setting “100 ng/mL in culture medium”, the “time of incubation to positive conidiogenic activity (at least two conidiophores per mycelial pellet)” value came to 22 h.

`CC1C(O)CC(=O)C2(C)CCC3C4C(C)(C)CCC4(C)CC132` (stereo not drawn) [conidiogenone, (1R*, 3R*, 7R*, 8S*, 11R*, 14S*, 15R*)-14-Hydroxy-3,6,6,11,15pentamethyl-tetracyclo[9.4.0.0^1,8.0^3,7]-pentadecan-12-one]: the “time of incubation to positive conidiogenic activity (at least two conidiophores per mycelial pellet)” value (25-50 ng/mL in culture medium) was 22 h.
